pIC50: −log10 of the molar value.

Test [1] concerns Mus musculus. Kind of test: In vivo antitumor activity against murine sarcoma 180 cells at an optimal dose of 1 mg/kg. The test is classed as functional.
Another test has as its system HeLa. Kind of test: In vitro antiproliferative activity against HeLa S3 cells. The test is classed as functional, cell-based. The following applies: Homo sapiens.
Test [2] deals with Mus musculus. Put plainly: Antitumor activity against human A-2780 tumor cells, at a dose of 8.0 mg/kg upon i.v. administration in nude mice. The test is classed as functional. The following applies: route intravenous.
Test [3] has as its system Mus musculus. Put plainly: Antitumor activity against human Lu-65 tumor cells, at a dose of 8.0 mg/kg upon i.v. administration in nude mice. In kind it is functional. The following applies: route intravenous.
Test [4] concerns Mus musculus. Put plainly: Antitumor activity against human HCT116 tumor cells, at a dose of 8.0 mg/kg upon i.v. administration in nude mice. The test is classed as functional. The following applies: route intravenous.
The subject of test [5] is Mus musculus. Put plainly: In vivo antitumor activity against lymphocytic leukemia P388 in mice expressed as maximal increase in life span at an optimal dose of 4 mg/kg. In kind it is functional.
Test [6] relates to Mus musculus. Put plainly: Antitumor activity against human Lu-65 tumor cells, at a dose of 12 mg/kg upon i.v. administration in nude mice. In kind it is functional. To be noted: route intravenous.
Test [7] relates to Mus musculus. Kind of test: Antitumor activity against human HCT116 tumor cells, at a dose of 12 mg/kg upon i.v. administration in nude mice. The test is classed as functional. The following applies: route intravenous.
The subject of test [8] is Mus musculus. Put plainly: In vivo antitumor activity against murine sarcoma 180 cells at an optimal dose of 8 mg/kg. The test is classed as functional.
For test [9], the system named is Mus musculus. Put plainly: Antitumor activity against human A-2780 tumor cells, at a dose of 12 mg/kg upon i.v. administration in nude mice. In kind it is functional. To be noted: route intravenous.
Test [10] relates to Mus musculus. Put plainly: In vivo antitumor activity against murine sarcoma 180 cells at an optimal dose of 2 mg/kg. In kind it is functional.
The subject of test [11] is Mus musculus. Kind of test: In vivo antitumor activity against lymphocytic leukemia P388 in mice expressed as maximal increase in life span at an optimal dose of 1 mg/kg. The test is classed as functional.
In test [12] the test system is Mus musculus. Put plainly: In vivo antitumor activity against lymphocytic leukemia P388 in mice expressed as maximal increase in life span at an optimal dose of 8 mg/kg. In kind it is functional.
Test [13] concerns Mus musculus. Kind of test: In vivo antitumor activity against murine sarcoma 180 cells at an optimal dose of mg/kg. In kind it is functional.
Test [14] concerns Mus musculus. Kind of test: Antitumor activity against human HCT116 tumor cells, at a dose of 18 mg/kg upon i.v. administration in nude mice. The test is classed as functional. The following applies: route intravenous.
Test [15] relates to Mus musculus. Put plainly: In vivo antitumor activity against murine sarcoma 180 cells at an optimal dose of 16 mg/kg. The test is classed as functional.
Test [16] has as its system Mus musculus. Put plainly: In vivo antitumor activity against lymphocytic leukemia P388 in mice expressed as maximal increase in life span at an optimal dose of 16 mg/kg. In kind it is functional.
The test system of test [17] is Mus musculus. Kind of test: Antitumor activity against human Lu-65 tumor cells, at a dose of 18 mg/kg upon i.v. administration in nude mice. The test is classed as functional. To be noted: route intravenous.
Test [18] has as its system Mus musculus. Put plainly: Antitumor activity against human A-2780 tumor cells, at a dose of 18 mg/kg upon i.v. administration in nude mice. In kind it is functional. The following applies: route intravenous.

A word on the pIC50: it is the IC50 on a negative log10 scale, so that one unit is a factor of ten. Lower therefore signals a large IC50. On to `COCCOCC(=O)O[C@@H]1/C=C(\C)CC[C@]2(CC(=O)N[C@@H](C)c3nc(cs3)/C=C\C=C\C1=O)[S+]([O-])SC(=O)[C@]2(C)O` (stereo partly drawn), for which, in the test on Mus musculus [1], the T/C turned out to be 0.72. Besides, the pIC50 in the test with HeLa was 7.59.
For the compound `C/C1=C\[C@@H](O[C@H]2CCCCO2)C(=O)/C=C/C=Cc2csc(n2)[C@@H](C)N2C(=O)C[C@@]([C@@](C)(O)C(=O)SCc3oc(=O)oc3C)(CC1)[S+]2[O-]` (stereo partly drawn), the T/C is 0.43 in the test with Mus musculus [2], 0.33 in the test with Mus musculus [3] and 0.48 in the test with Mus musculus [4].
Usually ILS stands for the gain in survival time of treated over control animals, in per cent. Read a low ILS as a small benefit in survival. Compound `C/C1=C\[C@@H](OC(=O)CNC(=O)CNC(=O)OCc2ccccc2)C(=O)/C=C/C=C\c2csc(n2)[C@H](C)NC(=O)C[C@@]2(CC1)[S+]([O-])SC(=O)[C@]2(C)O` (stereo partly drawn) came in with an ILS at 4 mg/kg with Mus musculus [5] of 72%. In addition, the T/C with Mus musculus [6] is reported as 0.3; in the test on Mus musculus [7] it was 0.48; in the test on Mus musculus [8] it was 0.3; with Mus musculus [9] it was 0.63. The compound further gave a pIC50 with HeLa of 7.64.
In the test with Mus musculus [10], `C/C1=C\[C@@H](O)C(=O)/C=C/C=C\c2csc(n2)[C@H](C)NC(=O)C[C@@]2(CC1)[S+]([O-])SC(=O)[C@]2(C)O` (stereo partly drawn) displayed a T/C of 0.44. In the test on Mus musculus [11], this compound displayed an ILS at 1 mg/kg of 64%. In the test with HeLa, this compound showed a pIC50 of 7.55.
In the test with Mus musculus [12], `C/C1=C\[C@@H](OC(=O)CNC(=O)OCc2ccccc2)C(=O)/C=C/C=C\c2csc(n2)[C@H](C)NC(=O)C[C@@]2(CC1)[S+]([O-])SC(=O)[C@]2(C)O` (stereo partly drawn) had an ILS at 8 mg/kg of 54%. Further, the pIC50 with HeLa is 8.21. For the same compound, the T/C in the test on Mus musculus [13] is on record as 0.89.
As for `C/C1=C\[C@@H](OC(=O)CNC(=O)CCNC(=O)OCc2ccccc2)C(=O)/C=C/C=C/c2csc(n2)[C@@H](C)N2C(=O)C[C@@]([C@@](C)(O)C(=O)SCc3oc(=O)oc3C)(CC1)[S+]2[O-]` (stereo partly drawn), the T/C in the test with Mus musculus [14] was found to be 0.64; with Mus musculus [15] it was 0.15; in the test on Mus musculus [17] it was 0.48; with Mus musculus [18], 0.46. The compound also had a pIC50 in the test on HeLa of 7.96. This compound also came in with an increase in life span (ILS) at 16 mg/kg in the test on Mus musculus [16] of 91%.

Source of the values: ChEMBL document CHEMBL1145735, “Synthesis and antitumor activity of novel C-8 ester derivatives of leinamycin” (Bioorg Med Chem Lett, 2003).
